Test results as given in patent publication US20250230193A1, “CYCLIC COMPOUND HAVING SELECTIVE KRAS INHIBITORY EFFECT ON HRAS AND NRAS” (CHUGAI SEIYAKU KABUSHIKI KAISHA, priority 2022, published 2025).

Key:
[1] = molecular target: GDP-bound NRAS wild-type protein (Homo sapiens, UniProt P01111); experiment: Binding to NRAS by surface plasmon resonance (SPR), Single Cycle Kinetics; conditions: KD ratio, GDP-bound NRAS wild-type vs GDP-bound KRAS wild-type, SPR
[2] = molecular target: GDP-bound HRAS wild-type protein (Homo sapiens, UniProt P01112); experiment: Binding to HRAS by surface plasmon resonance (SPR), Single Cycle Kinetics; conditions: KD ratio, GDP-bound HRAS wild-type vs GDP-bound KRAS wild-type, SPR
GDP-bound HRAS wild-type protein, sequence (P01112 whole entry): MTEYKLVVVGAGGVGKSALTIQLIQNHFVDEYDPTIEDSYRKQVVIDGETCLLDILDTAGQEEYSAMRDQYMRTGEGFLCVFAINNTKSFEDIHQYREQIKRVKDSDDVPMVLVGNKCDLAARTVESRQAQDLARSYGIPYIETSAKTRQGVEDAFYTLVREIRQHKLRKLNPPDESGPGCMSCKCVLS

GDP-bound NRAS wild-type protein, sequence (P01111 whole entry): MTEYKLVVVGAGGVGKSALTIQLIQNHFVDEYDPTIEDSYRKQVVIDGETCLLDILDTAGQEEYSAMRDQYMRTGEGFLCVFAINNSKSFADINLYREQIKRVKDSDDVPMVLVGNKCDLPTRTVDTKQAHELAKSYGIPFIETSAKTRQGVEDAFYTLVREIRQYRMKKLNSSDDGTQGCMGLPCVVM

## CCO[C@@H]1C[C@H]2C(=O)NC3(CCC3)C(=O)N(C)[C@@H](C3CCCC3)C(=O)N(C)[C@H](C(=O)N3CCOCC3)CC(=O)N(C)[C@@H](CC(F)F)C(=O)N[C@@H]([C@@H](C)CC)C(=O)N(C)CC(=O)N(C)[C@H]3CCCCCN(C3=O)[C@@H](Cc3ccc(C(F)(F)F)cc3)C(=O)N(C)CC(=O)N[C@@H](CCc3cc(F)c(C(F)(F)F)c(F)c3)C(=O)N2C1 [PP0854]
[1]
  NRAS/KRAS (ratio of KD value with respect to NRAS to KD value with respect to KRAS): B (a compound having 3 or more and less than 10 is denoted as B)
[2]
  HRAS/KRAS (ratio of KD value with respect to HRAS to KD value with respect to KRAS): B (a compound having 3 or more and less than 10 is denoted as B)

## CCO[C@@H]1C[C@H]2C(=O)NC3(CCC3)C(=O)N(C)[C@@H](C3CCCC3)C(=O)N(C)[C@H](C(=O)N3CCOCC3)CC(=O)N(C)[C@@H](Cc3cscn3)C(=O)N[C@@H]([C@@H](C)CC)C(=O)N(C)CC(=O)N(C)[C@H]3CCCCCN(C3=O)[C@@H](Cc3ccc(C(F)(F)F)cc3)C(=O)N(C)CC(=O)N[C@@H](CCc3cc(F)c(C(F)(F)F)c(F)c3)C(=O)N2C1 [PP0855]
[1]
  NRAS/KRAS (ratio of KD value with respect to NRAS to KD value with respect to KRAS): B (a compound having 3 or more and less than 10 is denoted as B)
[2]
  HRAS/KRAS (ratio of KD value with respect to HRAS to KD value with respect to KRAS): B (a compound having 3 or more and less than 10 is denoted as B)

## CCO[C@@H]1C[C@H]2C(=O)NC3(CCC3)C(=O)N(C)[C@@H](C3CCCC3)C(=O)N(C)[C@H](C(=O)N3CCOCC3)CC(=O)N(C)[C@@H](Cc3cccc(F)c3)C(=O)N[C@@H]([C@@H](C)CC)C(=O)N(C)CC(=O)N(C)[C@H]3CCCCCN(C3=O)[C@@H](Cc3ccc(C(F)(F)F)cc3)C(=O)N(C)CC(=O)N[C@@H](CCc3cc(F)c(C(F)(F)F)c(F)c3)C(=O)N2C1 [PP0856]
[1]
  NRAS/KRAS (ratio of KD value with respect to NRAS to KD value with respect to KRAS): B (a compound having 3 or more and less than 10 is denoted as B)
[2]
  HRAS/KRAS (ratio of KD value with respect to HRAS to KD value with respect to KRAS): B (a compound having 3 or more and less than 10 is denoted as B)

## CCO[C@@H]1C[C@H]2C(=O)NC3(CCC3)C(=O)N(C)[C@@H](C3CCCC3)C(=O)N(C)[C@H](C(=O)N3CCOCC3)CC(=O)N(C)[C@@H](Cc3cccc(Cl)c3)C(=O)N[C@@H]([C@@H](C)CC)C(=O)N(C)CC(=O)N(C)[C@H]3CCCCCN(C3=O)[C@@H](Cc3ccc(C(F)(F)F)cc3)C(=O)N(C)CC(=O)N[C@@H](CCc3cc(F)c(C(F)(F)F)c(F)c3)C(=O)N2C1 [PP0857]
[1]
  NRAS/KRAS (ratio of KD value with respect to NRAS to KD value with respect to KRAS): B (a compound having 3 or more and less than 10 is denoted as B)
[2]
  HRAS/KRAS (ratio of KD value with respect to HRAS to KD value with respect to KRAS): B (a compound having 3 or more and less than 10 is denoted as B)

## CCO[C@@H]1C[C@H]2C(=O)NC3(CCC3)C(=O)N(C)[C@@H](C3CCCC3)C(=O)N(C)[C@H](C(=O)N3CCOCC3)CC(=O)N(C)[C@@H](COC)C(=O)N[C@@H]([C@@H](C)CC)C(=O)NCC(=O)N(C)[C@H]3CCCCCN(C3=O)[C@@H](Cc3ccc(C(F)(F)F)cc3)C(=O)N(C)CC(=O)N[C@@H](CCc3cc(F)c(C(F)(F)F)c(F)c3)C(=O)N2C1 [PP0858]
[1]
  NRAS/KRAS (ratio of KD value with respect to NRAS to KD value with respect to KRAS): B (a compound having 3 or more and less than 10 is denoted as B)
[2]
  HRAS/KRAS (ratio of KD value with respect to HRAS to KD value with respect to KRAS): B (a compound having 3 or more and less than 10 is denoted as B)

## CCO[C@@H]1C[C@H]2C(=O)NC3(CCC3)C(=O)N(C)[C@@H](C3CCCC3)C(=O)N(C)[C@H](C(=O)N(C)C)CC(=O)N(C)[C@@H](COC)C(=O)N[C@@H]([C@@H](C)CC)C(=O)NCC(=O)N(C)[C@H]3CCCCCN(C3=O)[C@@H](Cc3ccc(C(F)(F)F)cc3)C(=O)N(C)CC(=O)N[C@@H](CCc3cc(F)c(C(F)(F)F)c(F)c3)C(=O)N2C1 [PP0859]
[1]
  NRAS/KRAS (ratio of KD value with respect to NRAS to KD value with respect to KRAS): B (a compound having 3 or more and less than 10 is denoted as B)
[2]
  HRAS/KRAS (ratio of KD value with respect to HRAS to KD value with respect to KRAS): B (a compound having 3 or more and less than 10 is denoted as B)

## CC[C@H](C)[C@@H]1NC(=O)[C@H](COC)N(C)C(=O)C[C@@H](C(=O)N2CCOCC2)N(C)C(=O)[C@H](C2CCCC2)N(C)C(=O)C2(CCC2)NC(=O)[C@@H]2CCCN2C(=O)[C@H](CCc2cc(F)c(C(F)(F)F)c(F)c2)NC(=O)CN(C)C(=O)[C@H](Cc2ccc(C(F)(F)F)cc2)N2CCCCC[C@@H](C2=O)N(C)C(=O)CNC1=O [PP0860]
[1]
  NRAS/KRAS (ratio of KD value with respect to NRAS to KD value with respect to KRAS): B (a compound having 3 or more and less than 10 is denoted as B)
[2]
  HRAS/KRAS (ratio of KD value with respect to HRAS to KD value with respect to KRAS): B (a compound having 3 or more and less than 10 is denoted as B)

## CC[C@H](C)[C@@H]1NC(=O)[C@H](COC)N(C)C(=O)C[C@@H](C(=O)N2CCOCC2)N(C)C(=O)[C@H](C2CCCC2)N(C)C(=O)C2(CCC2)NC(=O)[C@@H]2CC(F)(F)CN2C(=O)[C@H](CCc2cc(F)c(C(F)(F)F)c(F)c2)NC(=O)CN(C)C(=O)[C@H](Cc2ccc(C(F)(F)F)cc2)N2CCCCC[C@@H](C2=O)N(C)C(=O)CNC1=O [PP0861]
[1]
  NRAS/KRAS (ratio of KD value with respect to NRAS to KD value with respect to KRAS): B (a compound having 3 or more and less than 10 is denoted as B)
[2]
  HRAS/KRAS (ratio of KD value with respect to HRAS to KD value with respect to KRAS): B (a compound having 3 or more and less than 10 is denoted as B)

## CCO[C@@H]1C[C@H]2C(=O)NC3(CCCC3)C(=O)N(C)[C@@H](C3CCCC3)C(=O)N(C)[C@H](C(=O)N3CCOCC3)CC(=O)N(C)[C@@H](COC)C(=O)N[C@@H]([C@@H](C)CC)C(=O)NCC(=O)N(C)[C@H]3CCCCCN(C3=O)[C@@H](Cc3ccc(C(F)(F)F)cc3)C(=O)N(C)CC(=O)N[C@@H](CCc3cc(F)c(C(F)(F)F)c(F)c3)C(=O)N2C1 [PP0862]
[1]
  NRAS/KRAS (ratio of KD value with respect to NRAS to KD value with respect to KRAS): B (a compound having 3 or more and less than 10 is denoted as B)
[2]
  HRAS/KRAS (ratio of KD value with respect to HRAS to KD value with respect to KRAS): B (a compound having 3 or more and less than 10 is denoted as B)

## CCO[C@@H]1C[C@H]2C(=O)NC3(CCC3)C(=O)N(C)[C@@H](C3CCCC3)C(=O)N(C)[C@H](C(=O)N3CCOCC3)CC(=O)N(C)[C@@H](COC)C(=O)N[C@@H]([C@@H](C)CC)C(=O)N3CC[C@H]3C(=O)N(C)[C@H]3CCCCCN(C3=O)[C@@H](Cc3ccc(C(F)(F)F)cc3)C(=O)N(C)CC(=O)N[C@@H](CCc3cc(F)c(C(F)(F)F)c(F)c3)C(=O)N2C1 [PP0863]
[1]
  NRAS/KRAS (ratio of KD value with respect to NRAS to KD value with respect to KRAS): B (a compound having 3 or more and less than 10 is denoted as B)
[2]
  HRAS/KRAS (ratio of KD value with respect to HRAS to KD value with respect to KRAS): B (a compound having 3 or more and less than 10 is denoted as B)

## CCO[C@@H]1C[C@H]2C(=O)NC3(CCC3)C(=O)N(C)[C@@H](C3CCCC3)C(=O)N(C)[C@H](C(=O)N(C)C)CC(=O)N(C)[C@@H](COC)C(=O)N[C@@H]([C@@H](C)CC)C(=O)N3CC[C@H]3C(=O)N(C)[C@H]3CCCCCN(C3=O)[C@@H](Cc3ccc(C(F)(F)F)cc3)C(=O)N(C)CC(=O)N[C@@H](CCc3cc(F)c(C(F)(F)F)c(F)c3)C(=O)N2C1 [PP0864]
[1]
  NRAS/KRAS (ratio of KD value with respect to NRAS to KD value with respect to KRAS): B (a compound having 3 or more and less than 10 is denoted as B)
[2]
  HRAS/KRAS (ratio of KD value with respect to HRAS to KD value with respect to KRAS): B (a compound having 3 or more and less than 10 is denoted as B)
